Assay: Clinical trial of compound A in conventional formulations (not published)
Details: human, in vivo; read-out: elimination half-life (T1/2)
Excerpt: These problems are considered to be raised by, for example, the changes in pharmacokinetics caused by food, and therefore, the development of a formulation capable of avoiding the effects by food intake is desired.
Taking into consideration the results of the clinical trial described above, the present inventors conducted intensive studies to design the formulation by paying attention to the control of a release rate of the drug from a formulation to the extent that the release is not affected by food intake or the like, rather than the addition of release control.
On the basis of blood concentration profiles (in a fasted state/after the intake of food) after administration of a conventional formulation (rapid release formulation), the absorption rate of the drug in a fed state was calculated by a deconvolution method to predict continuous absorption for about 4 hours.

`Nc1nc(CC(=O)Nc2ccc(CCNC[C@H](O)c3ccccc3)cc2)cs1` [compound A, (R)-2-(2-aminothiazol-4-yl)-4′-[2-[(2-hydroxy-2-phenylethyl)amino]ethyl]acetic acid anilide] gave a half-life of 18 to 24 h.

Reference: patent US12059409B1, “Pharmaceutical composition for modified release” (ASTELLAS PHARMA INC., priority 2008, dated 2024)
